In ChEMBL document CHEMBL1140670, “Synthesis and evaluation of a phosphonate analogue of the soluble guanylate cyclase activator YC-1” (Bioorg Med Chem Lett, 2007) one finds Activity and solubility data, which are given here for two compounds.

Data set [1] is described as follows: Activation of sGC heme complex expressed in Sf9 cells at 150 uM in presence of carbon monoxide relative to control. As to conditions: Homo sapiens.
A short description of data set [2]: Activation of sGC heme complex expressed in Sf9 cells at 150 uM relative to control. The following applies: Homo sapiens.
The nature of data set [3]: Activation of sGC heme complex expressed in Sf9 cells at 150 uM in presence of nitric oxide relative to control. The following applies: Homo sapiens.
A short description of data set [4]: Aqueous solubility of the compound. It counts as physicochemical.
The nature of data set [5]: Activation of sGC heme complex expressed in Sf9 cells at 800 uM in presence of nitric oxide relative to control. The following applies: Homo sapiens.
Data set [6] in a line: Activation of sGC heme complex expressed in Sf9 cells at 800 uM in presence of carbon monoxide relative to control. The following applies: Homo sapiens.
Data set [7] is described as follows: Activation of sGC heme complex expressed in Sf9 cells at 800 uM relative to control. The following applies: Homo sapiens.

Consider `OCc1ccc(-c2nn(Cc3ccccc3)c3ccccc23)o1`, for which the Activity in data set [1] came out at 87; in data set [2] it was 6.4; in data set [3], 270.

A word on the solubility: it is the dissolved amount per volume that the medium holds. Low values mean a poorly soluble substance, high ones a readily soluble substance. As for `O=P(O)(O)Cc1ccc(-c2nn(Cc3ccccc3)c3ccccc23)o1`, the solubility in data set [4] was greater than 800 µM. The Activity in data set [1] worked out at 16; in data set [2], 5.2; in data set [5], 10; in data set [6], 1.2; in data set [7] it was 1.4; in data set [3], 38.
